According to patent US20170143712A1, “Methods of Treating Cancers, Immune and Autoimmune Diseases, and Inflammatory Diseases Based on BTK Occupancy and BTK Resynthesis Rate” (Acerta Pharma B.V., priority 2014, published 2017):
“Also recorded” adds a separate entry of the source.

How the values were obtained:
[1] = tested on: B cell receptor (BCR); experiment: Ex vivo anti-IgM induced CD86 and CD69 expression on splenocyte B cells after oral dosing of mice; format: in vivo, mouse; conditions: single oral 25 mg/kg
Description: B cell stimulation through the B cell receptor (BCR) with antibodies (e.g., anti-IgM) results in the activation of BTK and subsequent cellular changes, including the upregulation of various cell surface receptors. Measuring the inhibition of BCR induced protein phosphorylation downstream of Btk, and the inhibition of surface receptor upregulation provides a way to assess the Btk inhibitor activity. In the first study, the BTK target occupancy in splenocytes was measured over time, providing evidence for BTK resynthesis in the tissue compartment of interest.
Mice were sacrificed at 3, 6, 12, 18, and 24 hours after treatment with the BTK inhibitors (FIG. 27A, FIG. 27B, and FIG. 27C). Spleens were harvested and splenocyte preparations were made for flow cytometry analysis of B cell functions. Fresh or cryopreserved splenocytes were cultured with a-IgM to stimulate BCR, and the up-regulation of CD69, an early functional marker of B cell activation, was analyzed by flow cytometry.

[2] = Plasma pharmacokinetics in healthy volunteers; format: in vivo, human; conditions: 15 mg QD Day 1 vs Day 7; 15 mg and 25 mg studies
Description: Forty, healthy adult, non-tobacco using men and women were enrolled in the study. A 15 mg Formula (II) dose (1×15 mg capsule) was administered once daily (QD) to each subject for 7 consecutive days (Days 1 to 7) with a washout period (6 days). PD blood samples were collected from each subject before dosing on Day 1, throughout the study, and up to 144 hours after dosing on Day 7 to characterize Formula (II) PD effects. PK sampling for Formula (II) was also collected before dosing on Day 1, throughout the study, and for 24 hours after dosing on Day 7. Additionally, potential Formula (II) safety issues were monitored through physical examination, vital sign measurements, 12 lead electrocardiograms (ECGs), AEs and clinical laboratory tests.
The mean measured plasma concentration of Formula (II) versus time data (PK data) and mean occupancy of BTK by Formula (II) (PD data) were fitted with biophase compartment PK and PD models, respectively to enable prediction of PK and PD for different doses, dose regimens and dose durations. The biophase compartment PK model used to fit Formula (II) concentration versus time data is depicted in FIG. 1(A). The model is a naïve, mean data, two-compartment PK model with a delay d(1,3) for oral absorption. Fitting (optimization) was accomplished via weighed least squares. […]

[3] = target: BTK (Homo sapiens, UniProt Q06187); experiment: Per cell BTK protein level in CD19+/CD5+ CLL tumor cells (flow cytometry); format: in vivo; conditions: 100 mg BID, after 4 weeks of treatment
BTK, sequence (Q06187 whole entry): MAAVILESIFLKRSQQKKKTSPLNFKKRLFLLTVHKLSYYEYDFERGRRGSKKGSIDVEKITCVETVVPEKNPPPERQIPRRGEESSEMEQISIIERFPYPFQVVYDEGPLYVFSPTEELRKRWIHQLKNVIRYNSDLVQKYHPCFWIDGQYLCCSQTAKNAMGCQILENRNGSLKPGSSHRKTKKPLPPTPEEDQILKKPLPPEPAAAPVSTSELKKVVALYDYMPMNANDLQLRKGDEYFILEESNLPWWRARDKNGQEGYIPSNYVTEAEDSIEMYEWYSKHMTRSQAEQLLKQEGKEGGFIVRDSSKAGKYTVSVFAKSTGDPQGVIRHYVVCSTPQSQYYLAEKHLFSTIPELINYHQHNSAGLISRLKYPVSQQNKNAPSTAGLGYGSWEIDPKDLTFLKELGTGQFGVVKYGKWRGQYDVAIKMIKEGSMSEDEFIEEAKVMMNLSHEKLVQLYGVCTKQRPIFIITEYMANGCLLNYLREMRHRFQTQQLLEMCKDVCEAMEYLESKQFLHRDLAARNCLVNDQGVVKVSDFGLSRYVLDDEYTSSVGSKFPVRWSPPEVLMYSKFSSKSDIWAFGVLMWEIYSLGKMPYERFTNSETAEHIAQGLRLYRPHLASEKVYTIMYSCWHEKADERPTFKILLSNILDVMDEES
Description: Peripheral blood samples were obtained and BTK protein levels were evaluated in CD19+/CD5+ tumor cells by flow cytometry.

[4] = tested on: established type II collagen-induced arthritis (CIA) in DBA/1 mice; experiment: Mouse established CIA, dosing from arthritis day 8, QD or BID (Example 11); format: in vivo; conditions: for AUC (All Paws) - Corrected for Initial Score / Change in Body Weight (g) Days 1-19 / Histopathology Summed Score Knees / Histopathology Summed Score Paws / Histopathology Summed Score Six-Joints / Paw Score AUC (All Paws): mean(SE)
Text: A study was designed to determine the efficacy of a covalently acting BTK inhibitor, Formula (II) in inhibiting acute inflammation, pannus formation, cartilage destruction, and bone resorption associated with established type II collagen-induced arthritis (CIA) in DBA/1 mice. Immunization with heterologous type II collagen (CII) induces arthritis in mice of the DBA/1 strain, which is genetically susceptible to this disease. To develop an experimental model of autoimmunity more adequate for the study of human rheumatoid arthritis (RA), male DBA/1 mice were injected intradermally (ID) with bovine type II collagen to induce arthritis as reported by Trentham et al (Trentham D E, Townes A S, Kang A H Autoimmunity to type II collagen: an experimental model of arthritis. J. Exper. Med. 1977, 146:857-868) and Bendele A (Bendele A, Animal models of rheumatoid arthritis. J. Musculoskelet. Neuronal Interact. 2001, 1(4):377-85).
Following acclimatization, 6-7 week old male DBA/1 mice (n=10/group for arthritis) were immunized at the base of the tail, with 150 μL of Freund's Complete Adjuvant (Difco, Detroit, Mich.) containing 1 mg/mL bovine type II collagen by intradermal injection. Immunizations were performed day 0 and again on day 21. On study days 25-26, on day 8 following onset of arthritis, the mice were randomized into treatment groups. […] Dosing began on arthritis day 8 by oral gavage. Groups were treated with vehicle (0.4% HPMC, 0.2% Tween 80), Formula (II) at 25 mg/kg QD, Formula (II) at 12.5 mg/kg BID, or the reference compound dexamethasone (Dex) at 0.2 mg/kg QD. These animals were fasted overnight on arthritis day 20 (13 days after enrollment) prior to necropsy on arthritis day 21. Clinical scores were given for each of the paws (right front, left front, right rear, left rear) on arthritis days 1-21.
Efficacy evaluation was based on animal body weights, clinical arthritis scores, arthritis scores expressed as area under the curve (AUC), and histopathology on fore paws, hind paws, and knees. Histopathology results were expressed as 4 paws, knees only, or 6 joints (knees included). Day 19 was used as the endpoint for analysis of body weight change since the male DBA/1 mice were fasted overnight prior to necropsy on day 21.
Necropsies were conducted on fasted mice and terminal serum, fore paws, hind paws, and knees were collected into 10% neutral buffered formalin (NBF) for microscopy. Spleens were harvested and weighed.

SMILES: CC#CC(=O)N1CCC[C@H]1c1nc(-c2ccc(C(=O)Nc3ccccn3)cc2)c2c(N)nccn12 [Formula (II), (S)-4-(8-amino-3-(1-(but-2-ynoyl)pyrrolidin-2-yl)imidazo[1,5-a]pyrazin-1-yl)-N-(pyridin-2-yl)benzamide]
- inhibition at 25 mg/kg ([1]; Mus musculus, B-cell, 3-24 hours, read-out: CD69 % inhibition over the entire time course): 84.3%
- inhibition of ex vivo anti-IgM induced responses in B cells ([1]; 3 hours post-dose): near complete inhibition
- inhibition of CD86 and CD69 expression ([1]; persisting for 24 hours): partial inhibition
- accumulation or change in PK after repeat dosing [2]: no apparent accumulation; also recorded: little to no accumulation or change in PK after repeat dosing
- decrease in BTK protein expression per cell (median, of pre-dose values) [3]: 26%
- Clinical arthritis score AUC (d8-d21), reduction vs vehicle controls ([4]; 12.5 mg/kg BID): 59%
- absolute spleen weights, reduction vs vehicle controls ([4]; 12.5 mg/kg BID): 64%
- knee bone resorption, reduction vs vehicle controls ([4]; 12.5 mg/kg BID): 78%
- knee inflammation, reduction vs vehicle controls ([4]; 12.5 mg/kg BID): 49%
- knee pannus formation, reduction vs vehicle controls ([4]; 12.5 mg/kg BID): 80%
- six joint histopathology, reduction of summed scores ([4]; 12.5 mg/kg BID): 53%
- summed knee scores, reduction vs vehicle controls ([4]; 12.5 mg/kg BID): 45%
- arthritis scores measured daily vs vehicle controls ([4]; 12.5 mg/kg BID, p<0.05 on days 9-21): significantly reduced toward normal
- AUC (All Paws) - Corrected for Initial Score ([4]; 12.5 mg/kg PO BID): *−23.05(2.58)
- Change in Body Weight (g) Days 1-19 ([4]; 12.5 mg/kg PO BID): †0.64(0.69) g
- Histopathology Summed Score Knees ([4]; 12.5 mg/kg PO BID): *6.73(0.60)
- Histopathology Summed Score Paws ([4]; 12.5 mg/kg PO BID): *7.49(1.03)
- Histopathology Summed Score Six-Joints ([4]; 12.5 mg/kg PO BID): *7.23(0.77)
- Paw Score AUC (All Paws) ([4]; 12.5 mg/kg PO BID): *22.45(2.68)
- AUC (All Paws) - Corrected for Initial Score ([4]; 25 mg/kg PO QD): *−24.48(3.85)
- Change in Body Weight (g) Days 1-19 ([4]; 25 mg/kg PO QD): 2.37(0.28) g
- Histopathology Summed Score Knees ([4]; 25 mg/kg PO QD): *6.00(0.76)
- Histopathology Summed Score Paws ([4]; 25 mg/kg PO QD): *7.11(0.98)
- Histopathology Summed Score Six-Joints ([4]; 25 mg/kg PO QD): *6.74(0.80)
- Paw Score AUC (All Paws) ([4]; 25 mg/kg PO QD): *23.63(3.37)
- Clinical arthritis score AUC (d8-d21), reduction vs vehicle controls ([4]; 25 mg/kg QD): 56%
- knee bone resorption, reduction vs vehicle controls ([4]; 25 mg/kg QD): 82%
- knee cartilage damage, reduction vs vehicle controls ([4]; 25 mg/kg QD): 28%
- knee inflammation, reduction vs vehicle controls ([4]; 25 mg/kg QD): 53%
- knee pannus formation, reduction vs vehicle controls ([4]; 25 mg/kg QD): 82%
- six joint histopathology, reduction of summed scores ([4]; 25 mg/kg QD): 56%
- summed knee scores, reduction vs vehicle controls ([4]; 25 mg/kg QD): 51%
- tolerability ([4]; 25 mg/kg QD or 12.5 mg/kg BID, DBA/1 mice): well tolerated
- arthritis scores measured daily vs vehicle controls ([4]; 25 mg/kg QD, p<0.05 on days 11-21): significantly reduced toward normal
